Columns and labels:
PRDM9 = target: T1, PRDM9 (Homo sapiens, UniProt Q9NQV7); assay: Fluorescence polarization saturation binding of fluorescent probe to PRDM9; conditions: saturation-binding format, mean ± SEM, read-out: Sinefungin Probe 1A Affinity
T1 construct: purchased Cayman
Procedure: Sinefungin Probe 1A was tested for the ability to bind to 16 proteins, including several non-methlytransferase protein controls (Table 2). This probe binds to 4 methyltransferases (SET7/9, G9a, GLP, MLL) with Kd values <2 μM.

NSD2 = target: T2, NSD2 (Homo sapiens, UniProt O96028); assay: Fluorescence polarization saturation binding of fluorescent probe to NSD2
T2 construct: purchased Cayman 10758
T2 sequence (O96028 1-1365): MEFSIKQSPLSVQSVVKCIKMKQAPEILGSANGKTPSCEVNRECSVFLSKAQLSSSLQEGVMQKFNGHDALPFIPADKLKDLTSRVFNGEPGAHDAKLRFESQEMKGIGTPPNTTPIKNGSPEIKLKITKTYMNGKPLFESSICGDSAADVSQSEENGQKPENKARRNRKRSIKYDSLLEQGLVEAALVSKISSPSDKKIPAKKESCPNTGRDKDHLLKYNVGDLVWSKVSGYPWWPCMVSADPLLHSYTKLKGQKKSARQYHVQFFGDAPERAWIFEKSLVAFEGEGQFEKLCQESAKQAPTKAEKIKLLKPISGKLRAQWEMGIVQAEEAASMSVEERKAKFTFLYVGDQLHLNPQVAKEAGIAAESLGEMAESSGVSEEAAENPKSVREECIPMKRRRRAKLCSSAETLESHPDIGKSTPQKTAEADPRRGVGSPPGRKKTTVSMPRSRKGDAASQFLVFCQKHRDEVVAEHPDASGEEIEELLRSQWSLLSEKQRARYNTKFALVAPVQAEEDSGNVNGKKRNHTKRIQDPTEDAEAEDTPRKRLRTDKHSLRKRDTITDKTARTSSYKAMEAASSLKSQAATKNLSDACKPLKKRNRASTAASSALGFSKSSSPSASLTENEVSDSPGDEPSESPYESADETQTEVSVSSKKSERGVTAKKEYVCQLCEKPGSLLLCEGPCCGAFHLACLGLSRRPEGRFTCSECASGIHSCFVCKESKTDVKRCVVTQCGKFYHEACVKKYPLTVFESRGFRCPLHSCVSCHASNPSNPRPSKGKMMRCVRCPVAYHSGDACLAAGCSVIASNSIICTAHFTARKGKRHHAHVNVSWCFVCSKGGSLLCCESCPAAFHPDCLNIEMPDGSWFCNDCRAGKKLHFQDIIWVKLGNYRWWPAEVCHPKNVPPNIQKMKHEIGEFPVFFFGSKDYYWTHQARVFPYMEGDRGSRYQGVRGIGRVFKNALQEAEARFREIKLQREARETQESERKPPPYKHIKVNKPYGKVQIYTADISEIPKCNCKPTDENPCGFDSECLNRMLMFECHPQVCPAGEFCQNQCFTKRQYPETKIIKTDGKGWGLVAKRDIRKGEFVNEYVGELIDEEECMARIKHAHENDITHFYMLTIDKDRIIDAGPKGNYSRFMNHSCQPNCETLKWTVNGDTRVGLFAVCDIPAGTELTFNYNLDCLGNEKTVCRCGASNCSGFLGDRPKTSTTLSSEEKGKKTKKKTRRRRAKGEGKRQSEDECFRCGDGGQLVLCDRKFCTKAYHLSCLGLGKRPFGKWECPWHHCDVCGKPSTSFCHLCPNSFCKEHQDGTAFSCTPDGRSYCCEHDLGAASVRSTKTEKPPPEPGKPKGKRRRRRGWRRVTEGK
Procedure: Methods: The experiment was performed once, with two replicate wells for all methyltransferases per condition. The sole exception to this is NSD2 (see details below). The assay was performed in a ½ area, black, 96-well plate (Corning #3686) in a final volume of 30 μL. Methyltransferases (Table 1) were serially diluted two-fold in FP buffer (Cayman Catalog #600028) and 15 μL of a given dilution were added per well to the assay plate. Fifteen microliters of sinefungin probe 1A (10 nM) were added to each well, giving a final sinefungin probe 1A concentration of 5 nM. This concentration of sinefungin probe 1A was chosen because it had at least a 10-fold increase in fluorescence (excitation max 575 nm/emission max 615 nm) over background (buffer). The mixture was incubated in the dark at room temperature for 30 minutes and its fluorescence polarization was read using a BioTek Synergy 4.
For NSD2, the assay was performed essentially as above, but with the following changes. The assay was performed in a 20 μL total volume (10 μL NSD2/10 μL sinefungin probe 1) in low-volume, black, 384-well plates (Nunc #264705). The concentrations of sinefungin probe 1A and methyltransferase were identical to that of the 96-well format. The assay was performed once with three replicate wells per condition.

SET7/9 = target: T3, SET7/9 (Homo sapiens, UniProt Q8WTS6); assay: SET7/9 SAM-Screener high-throughput FP assay, Sinefungin Probe 1A displacement; type: binding; conditions: SET7/9 30 nM, FIG. 10
T3 construct: purchased Cayman 10320
T3 sequence (Q8WTS6 1-366): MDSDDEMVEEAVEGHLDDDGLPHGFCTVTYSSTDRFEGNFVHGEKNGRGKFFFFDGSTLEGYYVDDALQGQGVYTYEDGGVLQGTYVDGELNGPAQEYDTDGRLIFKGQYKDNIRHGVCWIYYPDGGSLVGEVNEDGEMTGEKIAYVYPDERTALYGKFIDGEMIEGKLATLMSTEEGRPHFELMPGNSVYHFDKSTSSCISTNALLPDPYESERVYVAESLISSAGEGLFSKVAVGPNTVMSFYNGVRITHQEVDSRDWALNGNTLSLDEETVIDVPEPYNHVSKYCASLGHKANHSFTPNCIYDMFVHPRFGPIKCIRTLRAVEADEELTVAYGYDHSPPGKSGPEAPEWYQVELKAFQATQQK
Procedure: Methods: A collection of 14,400 compounds from the Maybridge HitFinder collection of compounds was assayed for the displacement of Sinefungin Probe 1A from SET7/9 in a high-throughput manner using the SET7/9 SAM-Screener FP assay Cayman Catalog Item #600490). Thirty microliters of assay buffer (50 mM Tris pH 8.0, 50 mM KCl, 5 mM CHAPS, 2 mM DTT) was added to every well of a black 384-well polystyrene microtiter plate (Thermo-Fisher 364576). To every well, excluding control wells, was added one microliter of a DMSO solution containing a test compound. Control wells received either 1 μl DMSO or 1 μl of a sinefungin solution. The final concentration of sinefungin control or test compounds in the assay was 50 μM or 10 μM, respectively. To every well of the plate was added 10 μl of a SET7/9 solution to give a final assay concentration of 30 nM. After a 15-minute incubation at ambient temperature, 10 μl of Sinefungin Probe 1A solution was added to every well to give a final assay concentration of 10 nM in a total assay volume of 50 μl Samples were analyzed using a Biotek Synergy H4 plate reader in fluorescence polarization mode after a 30-minute incubation at ambient temperature in the dark. Data were analyzed using GeneData (v. 9.01). […]

MLL = assay: High-throughput FP Sinefungin Probe 1A binding assay adapted for MLL; conditions: MLL 1 μM, FIG. 10
Procedure: Adaptation for GLP and MLL: Assays for probe binding to two other methyltransferases (GLP and MLL) were also adapted to high throughput format. The assay conditions were identical to the SET7/9 assay, however the protein concentration was increased to raise the signal:noise ratio for the assay. For GLP, the protein concentration was raised to 500 nM, while the concentration of MLL was raised to 1 μM. Data were analyzed in GraphPad Prism (v. 5.04) and/or GeneData (v. 9.01).
This assay was also adapted for high throughput format against the methyltransferase MLL (Cayman Catalog Item #10658). Relevant data are illustrated in FIG. 10: The fluorescence polarization (FP) Sinefungin Probe 1A binding assay was adapted to a high-throughput inhibitor screening format for both A) MLL and B) SET7/9. The probe polarization is increased by >120 mp by binding to SET7/9 (30 nM) and by >145 mp by binding to MLL (1 μM). […] Sixty-four replicates were tested for each condition for SET7/9, sixteen replicates were tested for MLL. Z′ factor scores were >0.5 for all conditions tested (SET7/9:sinefungin: 0.71; SAM: 0.72; no SET7/9: 0.69; MLL:sinefungin: 0.72).

T1 sequence (Q9NQV7 whole entry, species assumed): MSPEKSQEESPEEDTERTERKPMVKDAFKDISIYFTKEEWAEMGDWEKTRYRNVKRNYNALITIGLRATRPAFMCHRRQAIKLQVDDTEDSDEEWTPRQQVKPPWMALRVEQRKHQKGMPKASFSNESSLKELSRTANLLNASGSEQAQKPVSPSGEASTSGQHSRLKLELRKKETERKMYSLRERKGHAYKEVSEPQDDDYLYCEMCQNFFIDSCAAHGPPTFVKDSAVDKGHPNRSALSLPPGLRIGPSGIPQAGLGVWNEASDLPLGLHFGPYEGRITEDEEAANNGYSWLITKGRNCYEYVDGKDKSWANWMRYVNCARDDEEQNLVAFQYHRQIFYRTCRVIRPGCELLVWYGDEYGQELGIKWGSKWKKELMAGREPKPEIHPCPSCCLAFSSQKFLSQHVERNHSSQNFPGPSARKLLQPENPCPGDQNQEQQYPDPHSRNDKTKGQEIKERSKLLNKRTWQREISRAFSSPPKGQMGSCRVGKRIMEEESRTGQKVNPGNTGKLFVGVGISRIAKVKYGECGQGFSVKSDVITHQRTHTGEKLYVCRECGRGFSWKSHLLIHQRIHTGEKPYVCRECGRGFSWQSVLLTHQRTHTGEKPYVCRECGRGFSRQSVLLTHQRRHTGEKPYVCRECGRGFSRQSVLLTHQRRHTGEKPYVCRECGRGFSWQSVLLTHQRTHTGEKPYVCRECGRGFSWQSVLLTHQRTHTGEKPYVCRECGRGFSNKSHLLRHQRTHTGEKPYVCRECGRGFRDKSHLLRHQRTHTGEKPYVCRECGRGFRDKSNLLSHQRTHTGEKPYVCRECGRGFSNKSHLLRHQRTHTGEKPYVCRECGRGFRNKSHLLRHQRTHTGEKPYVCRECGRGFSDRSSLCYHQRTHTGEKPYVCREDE

- Kd (PRDM9): 2600 ± 600 nM
- Kd (NSD2; NSD2, saturation-binding format, read-out: Sinefungin Probe 1A Affinity): > 2000 nM
- increase of probe polarization by binding (SET7/9): > 120 mp
- increase of probe polarization by binding (MLL): > 145 mp
SMILES: Nc1ncnc2c1ncn2[C@@H]1O[C@H](C[C@@H](N)CC[C@H](N)C(=O)O)[C@@H](OCc2cnnn2CCCCCCNC(=O)OC2CCN(C(=O)c3ccccc3C3=c4cc5c6c(c4Oc4c3cc3c7c4CCCN7CCC3)CCC[N+]=6CCC5)CC2)[C@H]1O [Sinefungin Probe 1A]
- measurable affinity for the probe (NSD2; Example 8, NSD2, 5 nM probe, 384-well, FIG. 2): only SET7/9 and G9a displayed measurable affinity

Source: US9120820B2, “Fluorescent molecular probes for use in assays that measure test compound competitive binding with SAM-utilizing proteins” (CAYMAN CHEMICAL COMPANY, INCORPORATED, priority 2011, dated 2015)
